Here are results for 12 compounds from patent US20120172397A1, “HEXAHYDROCYCLOPENTA[f]INDAZOLE 5-YL ETHANOLS AND DERIVATIVES THEREOF AS SELECTIVE GLUCOCORTICOID RECEPTOR MODULATORS” (MERCK SHARP & DOHME CORP., priority 2009, published 2012).

The target of the assay is T1, glucocorticoid receptor (GR) (Homo sapiens, UniProt P04150).
T1 construct: Preparation of HeLa Cell Lysate; endogenous in cells; host or cells: HeLa (ATCC) cell lysate supernatant
T1 sequence (P04150 1-777): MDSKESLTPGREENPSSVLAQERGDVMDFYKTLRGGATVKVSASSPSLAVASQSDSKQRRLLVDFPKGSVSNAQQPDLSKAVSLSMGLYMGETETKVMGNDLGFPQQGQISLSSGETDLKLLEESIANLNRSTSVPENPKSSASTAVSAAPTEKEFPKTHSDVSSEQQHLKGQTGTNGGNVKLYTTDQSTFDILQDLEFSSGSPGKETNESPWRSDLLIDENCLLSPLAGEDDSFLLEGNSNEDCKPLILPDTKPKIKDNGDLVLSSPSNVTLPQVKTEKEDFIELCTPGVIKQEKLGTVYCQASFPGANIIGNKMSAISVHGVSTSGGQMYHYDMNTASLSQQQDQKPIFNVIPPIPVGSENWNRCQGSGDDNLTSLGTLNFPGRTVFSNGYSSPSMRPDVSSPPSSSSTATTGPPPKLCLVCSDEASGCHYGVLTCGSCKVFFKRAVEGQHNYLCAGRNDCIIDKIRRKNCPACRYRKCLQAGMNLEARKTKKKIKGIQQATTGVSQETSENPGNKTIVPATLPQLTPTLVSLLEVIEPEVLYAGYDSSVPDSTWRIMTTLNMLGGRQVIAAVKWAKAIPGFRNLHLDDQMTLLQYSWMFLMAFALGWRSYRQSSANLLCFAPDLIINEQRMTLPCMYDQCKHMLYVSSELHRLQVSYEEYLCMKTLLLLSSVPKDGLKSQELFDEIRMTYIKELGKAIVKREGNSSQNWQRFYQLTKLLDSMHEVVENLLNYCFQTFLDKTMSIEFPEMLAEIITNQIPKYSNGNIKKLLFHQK
Put plainly: GR Ligand Binding Assay (BIND), 3H-dexamethasone displacement in HeLa cell lysate. The following applies: 3H-DEX trace, 4° C. overnight. As to the method: Binding Buffer: TEGM (10 mM Tris-HCl, 1 mM EDTA, 10% glycerol, 1 rnM beta-mecaptoethanol, 10 mM Sodium Molybdate, pH 7.2)
50% HAP Slurry: Calbiochem Hydroxylapatite, Fast Flow, in 10 mM Iris, pH 8.0 and 1 mM EDTA.
Wash Buffer: 40 mM Tris, pH7.5, 100 mM KCl, 1 mM EDTA and 1 mM EGTA. 95% EtOH
Dexmethasone-methyl-^3H, (DEX*); (Amersham cat# TRK645)
Dexamethasone(DEX) (Sigma, cat# D1756):
Cells (Hall R. E., et al., European Journal of Cancer, 30A: 484-490 (1994)) HeLa (ATCC) cultured in RPMI 1640 (Gibco 11835-055) containing 20 mM Hepes, 4 mM L-glu, 10 μg/ml of human insulin (Sigma, I-0259), 10% FBS and 20 μg/ml of Gentamicin (Gibco#15710-072) are rinsed twice in PBS. Phenol red-free Trypsin-EDTA is diluted in the same PBS 1:10. The cell layers are rinsed with 1× Trypsin, extra Trypsin is poured out, and the cell layers are incubated at 37° C. for ˜2 min. The flask is tapped and checked for signs of cell detachment. Once the cells begin to slide off the flask, the complete media is added. The cells are counted at this point, then diluted to the appropriate concentration and split into flasks or dishes for further culturing (Usually 1:3 to 1:6 dilution).
When the cells are 70 to 85% confluent, they are detached as described above, and collected by centrifuging at 1000 g for 10 minutes at 4° C. The cell pellet is washed twice with TEGM (10 mM Tris-HCl, 1 mM EDTA, 10% glycerol, 1 mM beta-mercaptoethanol, 10 mM Sodium Molybdate, pH 7.2). After the final wash, the cells are resuspended in TEGM at a concentration of 10^7 cells/mL. The cell suspension is snap frozen in liquid nitrogen or ethanol/dry ice bath and transferred to −80° C. freezer on dry ice. Before setting up the binding assay, the frozen samples are left on ice-water to just thaw (˜1 hr). Then the samples are centrifuged at 12,500 g to 20,000 g for 30 min at 4° C. The supernatant is used to set-up assay right away. If using 50 μL of supernatant, the test compound can be prepared in 50 μL of the TEGM buffer.
1× TEGM buffer is prepared, and the isotope-containing assay mixture is prepared in the following order: EtOH (2% final concentration in reaction), ^3H-DEX (Amersham Biosciences) and 1× TEGM. [e.g. For 100 samples, 200 μL (100×2) of EtOH+4.25 μL of 1:10 ^3H-Dex stock+2300 μL (100×23) 1× TEGM]. The compound is serially diluted, e.g., if starting final conc. is 1 μM, and the compound is in 25 μL of solution, for duplicate samples, 75 μL of 4×1 μM solution is made and 3 μL of 100 μM is added to 72 μL of buffer, and 1:5 serial dilution.
25 μL of ^3H-DEX (6 nM) trace and 25 μL compound solution are first mixed together, followed by addition of 50 μL receptor solution. The reaction is gently mixed, spun briefly at about 200 rpm and incubated at 4° C. overnight. 100 μL of 50% HAP slurry is prepared and added to the incubated reaction which is then vortexed and incubated on ice for 5 to 10 minutes. The reaction mixture is vortexed twice more to resuspend HAP while incubating reaction. The samples in 96-well format are then washed in wash buffer using The FilterMate™ Universal Harvester plate washer (Packard). The washing process transfers HAP pellet containing ligand-bound expressed receptor to Unifilter-96 GF/B filter plate (Packard). The HAP pellet on the filter plate is incubated with 50 μL of MICROSCINT (Packard) scintillint for 30 minutes before being counted on the TopCount microscintillation counter (Packard). IC50s are calculated using DEX as a reference.
In general, Ki refers to a measure of affinity in units of concentration, obtained from inhibition or displacement. Lower therefore signals a stronger hold on the target. The compound `COc1ccc(C(O)C[C@H]2CCC3=Cc4c(cnn4-c4cccnc4)C[C@@]32C)cc1` (stereo partly drawn) [Example 5, 1-(4-methoxyphenyl)-2-[(4αR,5R)-4α-methyl-1-(pyridin-3-yl)-1,4,4α,5,6,7-hexahydrocyclopenta[f]indazol-5-yl] ethanol] displayed a Ki of 0.9 nM.

`COc1ccccc1C(O)C[C@H]1CCC2=Cc3c(cnn3-c3cccnc3)C[C@@]21C` (single isomer, unassigned) [Example 2a]: the affinity, expressed as Ki, was 7.3 nM. This Ki lies about 8.1-fold higher than the previous one.

In turn, `COc1cccc(C(O)C[C@H]2CCC3=Cc4c(cnn4-c4cccnc4)C[C@@]32C)c1` (single isomer, unassigned) [Example 4a] gave a Ki of 3.6 nM.

With `C[C@]12Cc3cnn(-c4cccnc4)c3C=C1CC[C@@H]2CC(O)c1ccccn1` (single isomer, unassigned) [Example 6a], the Ki was found to be 346 nM.

The compound `CC(O)(C[C@H]1CCC2=Cc3c(cnn3-c3cccnc3)C[C@@]21C)c1ccccc1` (single isomer, unassigned) [Example 7a] registered a Ki of 2.3 nM.

The compound `C[C@]12Cc3cnn(-c4cccnc4)c3C=C1CC[C@@H]2CC(O)c1ccccc1` (single isomer, unassigned) [Example 1a] came in with a Ki of 3.5 nM.

With `COc1ccc(C(O)C[C@H]2CCC3=Cc4c(cnn4-c4cccnc4)C[C@@]32C)cn1` (stereo partly drawn) [Example 3, 1-(6-methoxypyridin-3-yl)-2-[(4αR,5R)-4α-methyl-1-(pyridin-3-yl)-1,4,4α,5,6,7-hexahydrocyclopenta[f]indazol-5-yl] ethanol], the affinity, expressed as Ki, was 8.5 nM. Compared with the last compound, the Ki is about 2.4-fold higher.

Take `COc1ccccc1C(O)C[C@H]1CCC2=Cc3c(cnn3-c3cccnc3)C[C@@]21C` (single isomer, unassigned) [Example 2b]: the Ki was 9 nM.

In the case of `C[C@]12Cc3cnn(-c4cccnc4)c3C=C1CC[C@@H]2CC(O)c1ccccn1` (single isomer, unassigned) [Example 6b], the Ki came out at 151 nM.

In turn, `CC(O)(C[C@H]1CCC2=Cc3c(cnn3-c3cccnc3)C[C@@]21C)c1ccccc1` (single isomer, unassigned) [Example 7b] gave a Ki of 4.8 nM.

`COc1cccc(C(O)C[C@H]2CCC3=Cc4c(cnn4-c4cccnc4)C[C@@]32C)c1` (single isomer, unassigned) [Example 4b]: affinity was put at a Ki of 8.4 nM.

As to `C[C@]12Cc3cnn(-c4cccnc4)c3C=C1CC[C@@H]2CC(O)c1ccccc1` (single isomer, unassigned) [Example 1b], the Ki was 8.8 nM.
